Results as given in PubChem BioAssay AID488890 (Southern Research Specialized Biocontainment Screening …, 2010).
Results filed as inconclusive are left out. Active and inactive are the calls of the source. No rule for the calls is given here.

The molecules below were run on Mycobacterium tuberculosis non-replicating, growth inhibition (assay: growth inhibition of non-replicating M. tuberculosis (AID 488890)).

Row | SMILES | IC50
1 | COc1ccc(NC(=O)COc2ccc3c(c2)CCC3)cc1 | 4.54 µM
2 | O=c1c2c(nc3c(-c4ccc(Cl)cc4)c[nH]n13)CCC2 | 4.22 µM
3 | CCCOc1ccc(N2CC(C(=O)Nc3ccccn3)CC2=O)cc1 (stereo not drawn) | 10.9 µM (inactive)
4 | C#CCSc1nnc(-c2ccc(O)cc2)o1 | 7.34 µM
5 | O=C1OC(/C(=C\Nc2cc(Cl)ccc2O)[N+](=O)[O-])c2ccccc21 (stereo not drawn) | 7.86 µM
6 | CCCCOc1ccc(-c2nnn(C(C)C(=O)OCC)n2)cc1 (stereo not drawn) | 1.57 µM
7 | C=Cc1cccc(NC(=O)COc2ccccc2)c1 | 5.75 µM
8 | O=C(c1ccccc1[N+](=O)[O-])N1N=C(c2ccccc2)CC1(O)C(F)(F)F (stereo not drawn) | 3.92 µM
9 | c1ccc(-c2noc(CC3CCCCC3)n2)nc1 | 1.18 µM
10 | O=C(C/C=N\OCc1ccc([N+](=O)[O-])cc1)Nc1ccc(Br)cc1 | 10.9 µM (inactive)
11 | CCCOc1ccc(N2C(=O)CC(N3CCCC(C(=O)N4CCCC4)C3)C2=O)cc1 (stereo not drawn) | 30.1 µM (inactive)
12 | O=C(Nc1nc(-c2ccccn2)cs1)c1ccc([N+](=O)[O-])o1 | 25.5 µM (inactive)
13 | COc1ccc(NC(=O)CCCN2C(=O)/C(=C\c3ccco3)SC2=S)cc1 | 7.93 µM
14 | N/C(=N/OC(=O)c1ccc(Cl)cc1)c1ncc([N+](=O)[O-])s1 | 7.53 µM
15 | O=C(Nc1nnc(-c2ccc(Br)cc2)o1)c1ccco1 | 11.4 µM (inactive)
16 | CN(C)C=C1C(=O)N(C2CCCCC2)C(=O)N(C2CCCCC2)C1=O | 1.57 µM
17 | COC(=O)c1cc2c(ccc3ccccc32)oc1=O | 6.24 µM
18 | CC1=C(/C=C/C(C)=N\NC(=O)c2ccncc2)C(C)(C)CCC1 | 1.15 µM
19 | CCOc1ccc(NCC(=O)c2ccc(C)cc2)cc1 | 4.95 µM
20 | C=C(C)C1Cc2c(C)nn(-c3nc(C)cc(C)n3)c2C1 (stereo not drawn) | 11.6 µM (inactive)
21 | Cc1ccc(CSCCNC(=O)c2cccc([N+](=O)[O-])c2)cc1 | 18.4 µM (inactive)
22 | O=C1/C(=C/C=C/c2ccccc2)Oc2c1ccc(O)c2CN1CCN(CCO)CC1 | 36.8 µM (inactive)
23 | O=C1CC(N2CCC(c3nc4ccccc4o3)CC2)C(=O)N1 (stereo not drawn) | 16.3 µM (inactive)
24 | c1ccc(-c2cccc(-c3ccccn3)n2)nc1 | 19.7 µM (inactive)

Row | SMILES | IC50
25 | O=C(OCn1nnc2ccccc2c1=O)C1CCCCC1 | 22 µM (inactive)
26 | Cc1cccc(C(=O)Nc2nnc(-c3cccnc3)o2)c1 | 7.46 µM
27 | O=C(Nc1nccs1)c1sc2ccccc2c1Cl | 14.3 µM (inactive)
28 | CCn1c(/C=N/NC(=O)c2ccc(OC)cc2)nc2ccccc21 | 7.78 µM
29 | COc1ccccc1-n1c(=O)oc2ccc(Cl)cc2c1=O | 12 µM (inactive)
30 | COc1cc(C=O)ccc1OCCCCOc1ccccc1[N+](=O)[O-] | 27.6 µM (inactive)
31 | CCOC(=O)c1nc2sc3c(c2c(=O)[nH]1)CCC(C)C3 (stereo not drawn) | < 0.1 µM
32 | CCOC(=O)N1CCC(N2CCCC(C(=O)c3ccc4cc(OC)ccc4c3)C2)CC1 (stereo not drawn) | 18.7 µM (inactive)
33 | O=C(O)c1ccc(CN2C(=O)CSC2=S)cc1 | 9 µM
34 | COc1ccc(C2(O)CCN(CCCCOc3ccccc3)CC2)cc1 | 18.1 µM (inactive)
35 | CCC(=O)Nc1nc2ccccc2n1Cc1ccccc1 | 4.86 µM
36 | Cc1nc([N+](=O)[O-])c(Br)n1CC(=O)c1ccc2ccccc2c1 | 7.54 µM
37 | CC(C)Oc1ccc(C(=O)CCN2CCCCC2)cc1 | 6.21 µM
38 | CSc1ccc(C(=O)C2CCCN(C(=O)c3ccc4c(c3)no[n+]4[O-])C2)cc1 (stereo not drawn) | 4.03 µM
39 | O=C(COC(=O)CCN1C(=O)/C(=C\C=C\c2ccccc2)SC1=S)Nc1cc(F)ccc1F | 13.9 µM (inactive)
40 | O=C(Nc1nnc(C2CC2)o1)c1ccc(S(=O)(=O)N2CCCCC2)cc1 | 29.8 µM (inactive)
41 | CCC(=O)c1ccc(OC(=O)c2ccc(Br)o2)cc1 | 9.81 µM
42 | Cc1cc(NC2CCCCC2)nc(NCc2ccccc2)n1 | 3.65 µM
43 | c1ccc(-c2ccccc2OCCCCn2ccnc2)cc1 | 33.5 µM (inactive)
44 | CC1=NN(c2ccc(C(=O)O)cc2)C(=O)/C1=C\c1ccc(OC(=O)c2cccs2)cc1 | 7.5 µM
45 | C/C(=N\NC(=O)CCCNc1ccc(C)cc1)c1ccccn1 | 9.07 µM
46 | O=C(CCS(=O)(=O)c1ccc(Cl)cc1)Oc1ccc2c(c1)OCO2 | 22.7 µM (inactive)
47 | O=C(CCc1c[nH]c2ccccc12)Nc1ncccc1O | 15.1 µM (inactive)
48 | O=C(N/N=C\c1ccc(Cl)s1)C1COc2ccccc2O1 (stereo not drawn) | 0.97 µM

Row | SMILES | IC50
49 | C/C(=N\NC(=O)c1cccc(Br)c1)c1ccccn1 | 3.65 µM
50 | COc1ccc(OC)c(NC(=O)C(=O)NNC(=O)C23CC4CC(CC(C4)C2)C3)c1 | 5.4 µM
51 | COC(=O)COc1ccc(-c2ccccc2)cc1C=O | 8.95 µM
52 | Cc1ccnc(-n2c(C)cc(/C=C3\C(=O)NC(=S)N(C)C3=O)c2C)c1 | 25.7 µM (inactive)
53 | Oc1cc(NCc2cccnc2)ccc1-c1nc2ccccc2o1 | 47.1 µM (inactive)
54 | Cc1cc(OCC(=O)Nc2ccncc2)ccc1Br | 3.47 µM
55 | Cc1cc2cc(CNC(=O)COc3ccccc3)ccc2n1C | 26 µM (inactive)
56 | CCOC(=O)c1cc(-c2csc(COc3ccccc3)n2)on1 | < 0.1 µM
57 | Cc1cccc(Cc2cnc(NC(=O)C3=NCCN3)s2)c1 | 4.82 µM
58 | COc1cc2c(cc1OC)CN(CCC(=O)c1ccc(Br)cc1)CC2 | 6.03 µM
59 | O=C(NNc1nc2ccccc2s1)c1ccc(F)cc1 | 43.8 µM (inactive)
60 | Cc1ccc2cc3c(nc2c1)OCC3 | 6.8 µM
61 | O=C(N/N=C/c1cc(Br)cc(Br)c1O)c1cccc(N2CCCC2=O)c1 | 4.24 µM
62 | Cc1cccc(CC(=O)NCC2CCCCC2)c1 | 16.7 µM (inactive)
63 | CCCCCCNC(=O)c1ccc(Br)o1 | < 0.1 µM
64 | O=Cc1c(NCc2ccco2)nc2ccccn2c1=O | 4.93 µM
65 | CCCn1nnnc1NCc1ccc(CC)cc1 | 8.41 µM
66 | O=C(Nc1nccs1)c1ccc(COc2ccc(Cl)cc2)o1 | 10.4 µM (inactive)
67 | CCOc1ccccc1OC(=O)c1cc2ccccc2oc1=O | 21.5 µM (inactive)
68 | CC(CN1CCOCC1)OC(=O)c1ccc(Br)cc1 (stereo not drawn) | 1.51 µM
69 | CC12CC3CC(C)(C1)CC(C(=O)N1CCCC1)(C3)C2 | 24 µM (inactive)
70 | O=c1[nH]c2ccccc2c2oc(CCl)nc12 | 4.22 µM
71 | CC(C)Cn1c(=O)c(C(=O)Nc2ccncc2)c(O)c2ccccc21 | 2.86 µM
72 | O=C(NC(=S)NNC(=O)[C@H]1C[C@@H]1c1ccccc1)c1cccc(F)c1 | 6.69 µM

Row | SMILES | IC50
73 | Clc1cccc(-c2ccc(CNCc3ccccn3)o2)c1 | 6.87 µM
74 | O=C(OCn1nnc2ccccc2c1=O)c1ccc(N2CCOCC2)c([N+](=O)[O-])c1 | 22.8 µM (inactive)
75 | CC(=O)N1N=C(c2ccccc2)OC1c1ccc([N+](=O)[O-])s1 (stereo not drawn) | 13.4 µM (inactive)
76 | COC(=O)c1cn(NC(=O)c2cnccn2)c(=O)c2ccccc12 | 8.67 µM
77 | COCCOC(=O)c1c(C)oc2ccc(OC(=O)c3ccco3)cc12 | 9.15 µM
78 | O=C(CCN1C(=O)S/C(=C\c2ccc(F)cc2)C1=O)Nc1ccc(C(=O)O)c(O)c1 | 0.17 µM
79 | COc1ccc2oc(=O)c(/C(C)=N/NC(=O)c3ccncc3)cc2c1 | 0.84 µM
80 | CCOC(=O)C1CCN(Cc2ccc(-c3ccccc3)cc2)CC1 | 44 µM (inactive)
81 | O=C(COc1ccc(F)cc1)N/N=C/c1cccc2cccnc12 | 3.84 µM
82 | COc1ccc(OCC(=O)Nc2ccc(N3CCN(C(=O)c4ccco4)CC3)cc2)cc1 | 20.8 µM (inactive)
83 | CCOc1ccccc1NC(=O)COn1nnc2ccc(Cl)cc21 | 10.5 µM (inactive)
84 | CCCNC(=O)c1ccc(COc2ccc(C)cc2)o1 | 32.9 µM (inactive)
85 | Cc1cccc(NC(=O)CO/N=C/c2ccc3c(c2)OCO3)c1 | 10.2 µM (inactive)
86 | CC1Cc2cc(/C=C3/SC(=S)NC3=O)ccc2O1 (stereo not drawn) | 3.01 µM
87 | COc1cccc2sc(Nc3nnc(-c4cccs4)o3)nc12 | 4.87 µM
88 | Clc1ccc(Cc2nnc(-c3cccs3)o2)cc1 | < 0.1 µM
89 | O=C(c1ccccc1)n1c(=O)c(F)cn(COCCBr)c1=O | 21 µM (inactive)
90 | Cc1nc2ccc(NC(=O)COc3cccc(F)c3)cc2s1 | 7.87 µM
91 | CN1C(=O)CC(Sc2ccccc2C(=O)O)C1=O (stereo not drawn) | 23.6 µM (inactive)
92 | COc1ccc(CCCC(=O)NCc2ccccc2)cc1C | 5.26 µM
93 | COc1ccc(CCNc2cc(-c3ccccc3)nc3ncnn23)cc1 | 0.49 µM
94 | CCOC(=O)Cn1c2ccc(F)cc2c2nc(C)sc21 | 13.8 µM (inactive)
95 | O=[N+]([O-])c1cncc([N+](=O)[O-])c1Nc1ccccc1Cl | 5.36 µM
96 | CCCCNC(=O)Cc1ccc(C)cc1 | 5.46 µM

Row | SMILES | IC50
97 | CC1CCN(C(=O)COC(=O)c2cc3ccccc3cc2O)CC1 | 2.04 µM
98 | O=C(Nc1ccc(-c2nc3ccccc3c(=O)o2)cc1)c1ccco1 | 0.35 µM
99 | CCc1nnc(NC(=O)c2cc3ccccc3oc2=O)s1 | 2.75 µM
100 | O=C(N/N=C/C=C/c1ccccc1)c1ccncc1 | 0.92 µM
101 | O=C(NNC1=C(C(=O)C(F)(F)F)CCC1)c1ccccc1Cl | 1.32 µM
102 | COC(=O)c1cc(-c2ccc(OC)cc2)on1 | 1.55 µM
103 | CC(OC(=O)c1ccc([N+](=O)[O-])s1)C(=O)NC1CCCCC1C (stereo not drawn) | 0.24 µM
104 | Cc1ccc(-c2cc(C(F)F)nc(S(C)(=O)=O)n2)cc1 | 6.96 µM
105 | Cc1nc2ccc(Cl)cc2nc(C)/c1=N\O | 14.4 µM (inactive)
106 | O=C(OCC(=O)N1CCN(c2ccccc2)CC1)c1ccc2ccccc2n1 | 8.13 µM
107 | O=[N+]([O-])c1ccc(Nc2ccccc2)c2nonc12 | 2.87 µM
108 | O=C(Nc1nc2ccccc2[nH]1)c1cccc([N+](=O)[O-])c1 | 33.2 µM (inactive)
109 | Cc1ccc(Oc2c(C(N)=O)cc([N+](=O)[O-])cc2[N+](=O)[O-])cc1 | 2.2 µM
110 | COCCn1c(C)cc(C(=O)COC(=O)c2ccc([N+](=O)[O-])o2)c1C | 2.79 µM
111 | CCC(=O)Nc1nc2ccccc2n1Cc1ccc(Cl)cc1 | 0.84 µM
112 | O=C(Cc1cccs1)N/N=C\c1ccc([N+](=O)[O-])s1 | 11.6 µM (inactive)
113 | O=C1N/C(=N\c2ccccn2)SC1Cc1ccc(Cl)cc1 (stereo not drawn) | 3.91 µM
114 | Cc1ccc2c(C)ccc(O)c2n1 | 5.18 µM
115 | Fc1ccc(N2CCN(Cc3nnc(-c4ccccc4)o3)CC2)cc1 | 18.9 µM (inactive)
116 | Cc1ccc(-c2nnc(C)c(N3CCCC3)n2)cc1 | 8.94 µM
117 | CC1=NN(C(=O)c2cc(C)nn2C)C(O)(C(F)(F)F)C1 (stereo not drawn) | 7.51 µM
118 | O=[N+]([O-])c1cc(Cl)cc(/C=N/Nc2nc3ccccc3s2)c1O | 1.8 µM
